Source: patent US10287305B2, “Substituted piperidine compound and use thereof” (Takeda Pharmaceutical Company Limited, priority 2016, dated 2019)

Molecular target: human orexin type 2 receptor (hOX2R) (Homo sapiens (Human), UniProt O43614)
Experiment: Measurement of orexin type 2 receptor agonist activity (Experimental Example 2-1, FLIPR TETRA, intracellular Ca2+);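 on Emax: Buffer-only well is 0% and 10 nM human orexin B is 100%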
Type: cell-based
Conditions: CHO dhfr- cells expressing hOX2R; for EC50: agonist activity, 10 nM human orexin B = 100%; for Emax at 30 µM: value at 30 uM concentration, orexin B as full agonist = 100%
From the text: To obtain a cell clone stably expressing human orexin type 2 receptor, human orexin type 2 receptor cDNA was inserted into pcDNA3.1(+) plasmid vector (Invitrogen), and a plasmid DNA for expression of human orexin type 2 receptor (pcDNA3.1(+)/hOX2R) was cloned. The plasmid DNA was introduced into CHO-dhfr cell by an electroporation method, and human orexin type 2 receptor expressing clone cells were obtained by limiting dilution method by using G418 drug resistance as a selection marker.
Chinese hamster ovary (CHO) dhfr-cells forcibly expressing human orexin type 2 receptor (hOX2R) were seeded in each well of Black clear bottom plate (384 wells) (Becton, Dickinson and Company) by 10,000 cells, and cultured for 16 hr in an MEM-alpha (Nikken-Bio Co., Ltd.) medium containing 100 U/ml penicillin, 100 μg/ml streptomycin, […] G418 (all above Invitrogen), and 10% fetal calf serum (Thermo), under the conditions of 37° C., 5% CO2. […] A test compound was dissolved in dimethyl sulfoxide to 10 mM, and then diluted with assay buffer 2 (20 mM HEPES, Hanks' balanced salt solution (Invitrogen), 0.1% bovine serum albumin). For the reaction, a test compound solution (10 μL) was added using Fluorescent Imaging Plate Reader TETRA (FLIPR TETRA; manufactured by Molecular Devices), a fluorescence value (excitation wavelength 488 nm, measurement wavelength 570 nm) of each well was measured every one second for 1 min, and the agonist activity was determined using the area of the fluorescence value as an indicator of intracellular Ca^2+ concentration.

human orexin type 2 receptor (hOX2R), sequence (O43614 whole entry): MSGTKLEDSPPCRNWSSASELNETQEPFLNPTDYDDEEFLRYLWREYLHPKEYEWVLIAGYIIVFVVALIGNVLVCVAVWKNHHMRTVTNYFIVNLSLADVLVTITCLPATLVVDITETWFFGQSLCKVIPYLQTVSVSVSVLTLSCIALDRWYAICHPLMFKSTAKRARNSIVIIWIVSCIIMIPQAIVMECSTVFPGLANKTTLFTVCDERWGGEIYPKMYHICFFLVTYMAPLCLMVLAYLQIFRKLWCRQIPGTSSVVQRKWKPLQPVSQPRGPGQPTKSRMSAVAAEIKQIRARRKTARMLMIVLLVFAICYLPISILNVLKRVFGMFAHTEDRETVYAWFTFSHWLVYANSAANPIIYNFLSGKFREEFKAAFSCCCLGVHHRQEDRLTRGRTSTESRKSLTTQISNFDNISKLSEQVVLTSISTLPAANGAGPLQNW

Row | EC50 | Emax at 30 µM | Compound
1 | 750 nM | 89% | CC(C)[C@H]1CC[C@@H](OC[C@H]2[C@@H](NS(C)(=O)=O)CCCN2C(=O)CCS(C)(=O)=O)CC1 (relative stereo) [Example 74, N-(cis-2-(((cis-4-isopropylcyclohexyl)oxy)methyl)-1-(3-(methylsulfonyl)-propanoyl)piperidin-3-yl)methanesulfonamide]
2 | – | 88% | CC(=O)CCC(=O)N1CCC[C@H](NS(C)(=O)=O)[C@@H]1CO[C@H]1CC[C@@H](C(C)C)CC1 (relative stereo) [Example 75, N-(cis-2-(((cis-4-isopropylcyclohexyl)oxy)methyl)-1-(4-oxopentanoyl)piperidin-3-yl)methanesulfonamide]
3 | 300 nM | 103% | CC(=O)N1CCC[C@H](NS(=O)(=O)C(C)C)[C@@H]1CO[C@H]1CC[C@@H](C(C)C)CC1 (relative stereo) [Example 76, N-(cis-1-acetyl-2-(((cis-4-isopropylcyclohexyl)oxy)methyl)piperidin-3-yl)propane-2-sulfonamide]
4 | 1000 nM | 91% | CCCS(=O)(=O)N[C@H]1CCCN(C(C)=O)[C@H]1CO[C@H]1CC[C@@H](C(C)C)CC1 (relative stereo) [Example 77, N-(cis-1-acetyl-2-(((cis-4-isopropylcyclohexyl)oxy)methyl)piperidin-3-yl)propane-1-sulfonamide]
5 | 63 nM | 91% | CC(=O)N1CCC[C@H](NS(=O)(=O)N(C)C)[C@@H]1CO[C@H]1CC[C@@H](C(C)C)CC1 (relative stereo) [Example 78, N′-(cis-1-acetyl-2-(((cis-4-isopropylcyclohexyl)oxy)methyl)piperidin-3-yl)-N,N-dimethylsulfuric diamide]
6 | 330 nM | 85% | CCNS(=O)(=O)N[C@H]1CCCN(C(C)=O)[C@H]1CO[C@H]1CC[C@@H](C(C)C)CC1 (relative stereo) [Example 79, N-(cis-1-acetyl-2-(((cis-4-isopropylcyclohexyl)oxy)methyl)piperidin-3-yl)-N′-ethylsulfuric diamide]
7 | 660 nM | 98% | CC(=O)N1CCC[C@H](NS(=O)(=O)C(F)(F)F)[C@@H]1CO[C@H]1CC[C@@H](C(C)C)CC1 (relative stereo) [Example 80, N-(cis-1-acetyl-2-(((cis-4-isopropylcyclohexyl)oxy)methyl)piperidin-3-yl)-1,1,1-trifluoromethanesulfonamide]
8 | 2800 nM | 74% | CC(C)[C@H]1CC[C@@H](OC[C@H]2[C@@H](NS(C)(=O)=O)CCCN2C(=O)C2CN(S(C)(=O)=O)C2)CC1 (relative stereo) [Example 90, N-(cis-2-(((cis-4-isopropylcyclohexyl)oxy)methyl)-1-((1-(methylsulfonyl)azetidin-3-yl)carbonyl)piperidin-3-yl)methanesulfonamide]
9 | 2300 nM | 84% | CC(C)[C@H]1CC[C@@H](OC[C@H]2[C@@H](NS(C)(=O)=O)CCCN2C(=O)Cn2cnccc2=O)CC1 (relative stereo) [Example 93, N-(cis-2-(((cis-4-isopropylcyclohexyl)oxy)methyl)-1-((6-oxopyrimidin-1(6H)-yl)acetyl)piperidin-3-yl)methanesulfonamide]
10 | 4300 nM | 89% | CC(=O)N1CCC[C@H](NS(C)(=O)=O)[C@@H]1CO[C@H]1CC[C@@H](C(C)(C)F)CC1 (relative stereo) [Example 95, N-(cis-1-acetyl-2-(((cis-4-(2-fluoropropan-2-yl)cyclohexyl)oxy)methyl)piperidin-3-yl)methanesulfonamide]
11 | 26 nM | 95% | COCCNC(=O)N1CCC[C@H](NS(C)(=O)=O)[C@@H]1CO[C@H]1CC[C@@H](C(C)C)CC1 (relative stereo) [Example 96, cis-2-(((cis-4-isopropylcyclohexyl)oxy)methyl)-N-(2-methoxyethyl)-3-((methylsulfonyl)amino)piperidine-1-carboxamide]
12 | 4.5 nM | 108% | CC(C)[C@H]1CC[C@@H](OC[C@H]2[C@@H](NS(C)(=O)=O)CCCN2C(=O)NCCO)CC1 (relative stereo) [Example 97, cis-N-(2-hydroxyethyl)-2-(((cis-4-isopropylcyclohexyl)oxy)methyl)-3-((methylsulfonyl)amino)piperidine-1-carboxamide]
13 | – | 107% | CC(C)[C@H]1CC[C@@H](OC[C@H]2[C@@H](NS(C)(=O)=O)CCCN2C(=O)NCC(F)(F)F)CC1 (relative stereo) [Example 98, cis-2-(((cis-4-isopropylcyclohexyl)oxy)methyl)-3-((methylsulfonyl)amino)-N-(2,2,2-trifluoroethyl)piperidine-1-carboxamide]
14 | 13 nM | 112% | CC(C)[C@H]1CC[C@@H](OC[C@H]2[C@@H](NS(C)(=O)=O)CCCN2C(=O)NC2CC2)CC1 (relative stereo) [Example 99, cis-N-cyclopropyl-2-(((cis-4-isopropylcyclohexyl)oxy)methyl)-3-((methylsulfonyl)amino)piperidine-1-carboxamide]
15 | 2.2 nM | 112% | CCCNC(=O)N1CCC[C@H](NS(C)(=O)=O)[C@@H]1CO[C@H]1CC[C@@H](C(C)C)CC1 (relative stereo) [Example 100, cis-2-(((cis-4-isopropylcyclohexyl)oxy)methyl)-3-((methylsulfonyl)amino)-N-propylpiperidine-1-carboxamide]
16 | 2.3 nM | 115% | CC(C)NC(=O)N1CCC[C@H](NS(C)(=O)=O)[C@@H]1CO[C@H]1CC[C@@H](C(C)C)CC1 (relative stereo) [Example 101, cis-N-isopropyl-2-(((cis-4-isopropylcyclohexyl)oxy)methyl)-3-((methylsulfonyl)amino)piperidine-1-carboxamide]
17 | 4800 nM | 89% | CC(=O)N1CCC[C@H](NS(C)(=O)=O)[C@@H]1CO[C@H]1CC[C@@H](C(F)(F)F)CC1 (relative stereo) [Example 106, N-(cis-1-acetyl-2-(((cis-4-(trifluoromethyl)cyclohexyl)oxy)methyl)piperidin-3-yl)methanesulfonamide]
18 | 120 nM | 75% | CCNC(=O)N1CCC[C@H](NS(C)(=O)=O)[C@@H]1CO[C@H]1CC[C@@H](C(F)(F)F)CC1 (relative stereo) [Example 107, cis-N-ethyl-3-((methylsulfonyl)amino)-2-(((cis-4-(trifluoromethyl)cyclohexyl)oxy)methyl)piperidine-1-carboxamide]
19 | 480 nM | 102% | CN(C)S(=O)(=O)N[C@H]1CCCN[C@H]1CO[C@H]1CC[C@@H](c2ccccc2)CC1 (relative stereo) [Example 109, N,N-dimethyl-N′-(cis-2-(((cis-4-phenylcyclohexyl)oxy)methyl)piperidin-3-yl)sulfuric diamide]
20 | 13 nM | 97% | CC(=O)N1CCC[C@H](NS(=O)(=O)N(C)C)[C@@H]1CO[C@H]1CC[C@@H](c2ccccc2)CC1 (relative stereo) [Example 111, N′-(cis-1-acetyl-2-(((cis-4-phenylcyclohexyl)oxy)methyl)piperidin-3-yl)-N,N-dimethylsulfuric diamide]
